Results published in patent US20110289042A1, “Integrative Framework for Three-Stage Integrative Pathway Search” (BOARD OF TRUSTEES OF MICHAGN STATE UNIVERSITY, priority 2005, published 2011).
Read-outs that look alike come from different tables or passages of the source.

What was measured:
Format in all cases: cell-based, human
Bcl-2 = Bcl-2 protein expression by western blot in HepG2 cells
Description: Cells cultured in mediums of HepG2, Palmitate, Oleate, Palmitate (400 μM)+Oleate medium (300 μM) were lysated as described before. The protein samples were run on 10-20% gradient SDS-PAGE. Bcl-2 was probed with Bcl-2 antibody (1:1000) (Cell Signaling Technology, Inc., Danvers, Mass., US) as the primary antibody and goat anti-rabbit IgG as the second antibody at 1:1000 dilution.

[1] = tested on: stearoyl-CoA desaturase (SCD); assay: SCD protein expression by western blot in HepG2 cells
Description: The protein expression level of SCD in HepG2 cells cultured in control (HepG2 medium), palmitate, oleate, palmitate+oleate, mediums were measured as a function of TNF-α with western blots.

phospho-P65 NF-κB = phospho-P65 NF-κB by western blot in HepG2 cells
Description: Therefore, we tested the possibility of this link in HepG2 cells by adding rottlerin, an inhibitor of PKC-δ, and measuring the protein expression and activity levels of NF-κB with western blots. […] This confirmed the connection between TNF-α and PKC-δ in the reconstructed network (model). To determine whether PKC-δ is involved in mediating the activation of NF-κB by TNF-α, PKC-δ was inhibited by a PKC-δ specific inhibitor rottlerin. The activity of NF-κB was measured with western blots by detecting the levels of phosphorylated NF-κB p65 at serine 536 [Sakurai et al. 2003]. As shown in FIG. 6(A), the activation of NF-κB p65 was attenuated by rottlerin. […] Therefore, PKC-δ was appropriately identified by the model to be an important factor in mediating the TNF-α signaling pathway.
PKC-δ was inhibited with rottlerin (BIOMOL Research Laboratories, Plymouth Meeting, Pa.). […] After 48 hours of exposure, cells were lysated with 1× SDS sample buffer. After ultrasonication for 11-15 seconds, the suspension was centrifuged (10,000 relative centrifugal force (rcf), 5 minutes). The supernatant was run on 7.5% gradient SDS-PAGE, transferred to a nitrocellulose membrane, blocked for 1 hour at room temperature with 5% milk protein solution in Tris buffered saline with Tween 20, and exposed to monoclonal anti-phospho NF-κB (65 kDa subunit) (Cell Signaling Technology Inc., MA) at 1:2000 dilution overnight at 4° C. The blot was washed and put in rabbit anti-mouse IgG secondary antibody (1:2000 dilution in TBS-Tween) for 1 hour. The blot was washed thrice each in TBS-Tween and TBS and developed using Supersignal West Femto Substrate (Pierce Chemicals), and imaged with Bio-Rad imager.
Bcl-2 was inhibited with HA14-1 (BIOMOL Research Laboratories, Plymouth Meeting, Pa.) at 10 μM. The phospho-NF-κB p65 was detected with monoclonal anti-phospho NF-κB (65 kDa subunit) (Cell Signaling Technology Inc., Danvers, Mass., US) at 1:2000 dilution.

Hep G2/C3A cells = tested on: Hep G2/C3A cells
Description: Cell Culture. 1 million Hep G2/C3A cells (ATCC, Manassas, Va.) were seeded into each well of 6-well culture plate. The cells were kept in 2 mL of medium containing Dulbecco's modified Eagles medium (Invitrogen, Carlsbad, Calif.) supplemented with 10% fetal bovine serum (ATCC) and 2% Penicillin-streptomycin (Invitrogen). Cells were incubated at 37° C. and in 10% CO2 atmosphere. After cells reached confluence, the medium was replaced with 2 mL of treatment of FFA including palmitate (700 μM), oleate (700 μM), linoleate (700 μM) and TNF-α (0, 20, 100 ng/mL′)
Cytotoxicity measurement. […] Cells were washed with phosphate buffered saline (PBS) and kept in 1% Triton-X-100 in PBS for 24 h at 37° C. Cell lysate was then collected, vortexed for 15 seconds, and centrifuged at 7000 rpm for 5 minutes. Cytotoxicity detection kit (Roche Applied Science, Indianapolis, Ind.) was used to measure the LDH release. LDH released was normalized to the total LDH (released+lyzed).

PKC-δ = PKC-δ expression by western blot in HepG2 cells; conditions: TNF-α 20 and 100 ng/mL; control, palmitate and oleate cultures
Description: PKC-δ Inhibiting Analysis. The levels of PKC-δ in HepG2, palmitate (700 μM), oleate (700 μM) and palmitate (400 μM)+oleate medium (300 μM) with TNF-α supplementation of 0, 20, 100 ng/mL were detected with western blotting using anti-PKC-δ antibody (Santa Cruz Biotechnology, Inc., Santa Cruz, Calif., US) at 1:2000 dilution.

SCD gene expression = SCD gene expression by cDNA microarray in HepG2 cells; conditions: TNF-α in HepG2 cells; log 2(treatment/control)
Description: Gene expression profiling. Cells were cultured in 10 cm tissue culture plates until confluence and then exposed to different treatments. RNA was isolated with Trizol reagent. The gene expression profiling was obtained with cDNA microarray. Analyses were done at the Van Andel Institute, Grand Rapids, Mich. The protocols are available online at (http://microarray.vai.org/protocols/). There were two biological replicates for each condition and each replicate was measured with the Cy3 and Cy5 dyes.

## TNF-α
Bcl-2; TNF-α 20-100 ng/mL, control, palmitate and oleate cultures
  Bcl-2 expression: down-regulated
[1]; TNF-α, control, oleate and co-supplementation cultures
  SCD protein expression: decreased the expression of SCD
phospho-P65 NF-κB; TNF-α 0, 20 or 100 ng/mL
  phospho-P65 NF-κB: activated phospho-P65 NF-κB
Hep G2/C3A cells
  cytotoxicity: cytotoxic
Hep G2/C3A cells; TNF-α in control culture
  LDH release in control culture: did not affect LDH release
Hep G2/C3A cells; record 2
  cytotoxicity: cytoprotective
PKC-δ
  expression of PKC-δ 41 kDa catalytically active fragment: increased
SCD gene expression
  gene expression of SCD: upregulated

## CC(=O)N[C@@H](CS)C(=O)O [N-acetyl cysteine]
[1]; co-supplementation of 10 mM
  SCD protein expression in palmitate culture: prevented the SCD down-regulation
Hep G2/C3A cells; co-supplementation of 10 mM
  LDH release in palmitate culture: reduced LDH release

## CC(C)(Oc1ccc(C2CC2(Cl)Cl)cc1)C(=O)O (stereo not shown) [ciprofibrate]
Hep G2/C3A cells; 6 hours pretreatment followed by 48 hours co-supplementation of 50 μM, palmitate culture
  LDH release in palmitate culture: significantly decrease LDH release

## CCOC(=O)C1=C(N)Oc2ccc(Br)cc2C1C(C#N)C(=O)OCC (stereo not shown) [HA14-1]
phospho-P65 NF-κB; 10 μM, control, palmitate, oleate and palmitate+oleate co-supplementation cultures
  activation of phospho-P65 NF-κB: attenuated the activation of phospho-P65 NF-κB

## O=C1Nc2ccc3ncsc3c2/C1=C/c1cnc[nH]1 [PKR inhibitor]
Bcl-2; 6 μM in culture medium of control
  Bcl-2 expression: decreased the Bcl-2 expression
Hep G2/C3A cells; PKR inhibitor 6 μM in control culture medium, 3% without inhibitor
  LDH release: 25%

## CC(=O)c1c(O)c(C)c(O)c(Cc2c(O)c3c(c(C(=O)/C=C/c4ccccc4)c2O)OC(C)(C)C=C3)c1O [rottlerin]
phospho-P65 NF-κB; rottlerin 5 μM, 0, 20 or 100 ng/mL TNF-α
  TNF-α-induced activation of phospho-P65 NF-κB: this activation was attenuated
Hep G2/C3A cells; rottlerin added to palmitate cultures
  increase of LDH release in the palmitate cultures: up to 25%
